test system: microsomal lipids; assay: Inhibition of lipid peroxidation (microsomal lipids, tert-butylhydroperoxide initiated, chemiluminescence detection); assay type: biochemical; settings: peroxidation of microsomal lipids initiated by tert-butylhydroperoxide
Description: In this model, lignan compounds were compared to the well known, potent antioxidant Trolox, which is a water-soluble derivative of vitamin E.

**Q.** COc1cc(CC2C(=O)OCC2C(=O)c2ccc(O)c(OC)c2)ccc1O (centres unmarked) [Oxomatairesinol] was tested. Which IC50 did it give?
**A.** Its IC50 is 110 nM.

**Q.** COc1cc(C[C@@H](CO)[C@H](CO)Cc2ccc(O)c(OC)c2)ccc1O [Secoisolariciresinol] was tested. Which IC50 did it give?
**A.** The IC50 was 90 nM.

**Q.** COc1cc(C[C@H]2CO[C@H](c3ccc(O)c(OC)c3)[C@H]2CO)ccc1O [Lariciresinol] was tested. Which IC50 did it give?
**A.** Its IC50 is 70 nM.

**Q.** COc1cc(CC2COC(=O)C2(O)Cc2ccc(O)c(OC)c2)ccc1O (centres unmarked) [Nortrachelogenin] was tested. Which IC50 did it give?
**A.** The IC50 was 150 nM.

**Q.** CCCC(=O)Oc1ccc(C[C@H]2COC(=O)[C@@H]2Cc2ccc(OC(=O)CCC)c(OC)c2)cc1OC [Matairesinoibutyrate] was tested. Which IC50 did it give?
**A.** Its IC50 is 350 nM.

**Q.** For COc1cc(C[C@H]2C(=O)OC[C@@H]2[C@H](O)c2ccc(O)c(OC)c2)ccc1O [Hydroxymatairesinol (HMR), Hydroxymatairesinol], which IC50 is on record?
**A.** Its IC50 is 60 nM.

**Q.** HMR-benzoate was tested. Which IC50 did it give?
**A.** Its IC50 is 120 nM.

**Q.** How did the IC50 turn out when HMR-butyrate was run?
**A.** The IC50 was 100 nM.

**Q.** Cc1c(C)c2c(c(C)c1O)CCC(C)(C(=O)O)O2 (centres unmarked) [Trolox, reference compound] was tested. Which IC50 did it give?
**A.** Its IC50 is 220 nM.

**Q.** With α-Conidendrin as the molecule, how does the IC50 read?
**A.** The IC50 was 67 nM.

**Q.** With COc1cc(C[C@H]2COC(=O)[C@@H]2Cc2ccc(O)c(OC)c2)ccc1O [Matairesinol] as the molecule, how does the IC50 read?
**A.** Its IC50 is 54 nM.

— patent US7582677B2, “Lignan formulations” (Hormos Medical Corp., priority 2002, dated 2009)
